The values that follow are results of earlier work, collected in patent US6681132B1, “Sodium magnetic reasonance imaging used in diagnosing tumors and assessing response to treatment” (The Trustees of Columbia University in the City of New York, priority 1999, dated 2004).

This data set concerns L cells. As to conditions: K+ loss exceeds Na+ gain; cited from earlier work.

As to `O=C(O)c1nn(Cc2ccc(Cl)cc2Cl)c2ccccc12` [lonidamine], the “effect on total cellular monovalent cations” value was “net reduction”.
